Test results reported in patent US4916122A, “3'-Azido-2',3'-dideoxyuridine anti-retroviral composition” (University of Georgia Research Foundation, Inc., priority 1987, dated 1990).
pEC50, pKi: −log10 of the molar value. ≈ marks a conversion by molar mass, not a printed value. Where “and” joins values, the source holds several entries; their conditions need not be identical. Equal entries are not always repeated. Where two headings read alike, the source gives them in different places.

How the values were obtained:
HIV-1 and SIV = experiment: Effect of delayed treatment on replication of HIV-1 and SIV in human PBM cells (FIG. 7); assay type: cell-based, HIV-1; SIV
From the text: (§1) A comparison of the differences in median effective an tiviral concentrations between human, non-human primate, and murine retroviruses is shown in Table 5. […] A further comparison of the activity of several nucleoside analogues, including CS-87, against HIV-1 and SIV in human PBM cells is shown in FIG. 6. The effect of delayed treatment with AZT, CS-87 or CS-91 on the replication of HIV-1 and SIV in human PBM cells is shown in FIGS. 7a, b, and c.

HIV-1 (Strain HTLV-III) = experiment: Antiviral activity against HIV-1 in ATH-8 cells (Table 4); conditions: Human immunodeficiency virus 1, 240 h, read-out: ATH-8 (MIC)
HIV-1 = experiment: microbe, parasite or virus in culture; conditions: Human immunodeficiency virus 1, PBMC, read-out: PBM (EC50)
Friend (EY-10) = experiment: Median effective antiviral concentration against Friend virus (Table 5); assay type: cell-based, murine retrovirus; conditions: unidentified retrovirus, in Mus musculus
From the text: as §1

HIV = conditions: in vitro
HIV-1 (strain LAV) = experiment: Inhibition of HIV replication in human PBM cells, reverse transcriptase assay (Table 3)
SIV (SMM) = experiment: Median effective antiviral concentration against SIV (Table 5); assay type: cell-based, simian immunodeficiency virus; conditions: Simian immunodeficiency virus
From the text: as §1

HIV-1 (Strain RF-II) = experiment: Antiviral activity against HIV-1 in HeLa-T4 cells (Table 4); assay type: cell-based; conditions: Human immunodeficiency virus 1, HeLaT4, HIV-1
Method: Evaluation in Hela-T4 cells infected with HIV-1 (Strain RF-II)
HeLa-T4 cells (described in Cell 47: 333, 1986) are maintained in Dulbecco's Modified Eagle medium containing 10% inactivated fetal calf serum, penicillin (100 U/ml) and streptomycin (100 μg/ml), and the antibiotic G418 (1 mg/ml). The cells are seeded onto a 96-well plate (2×10^4 cells/well per 0.1 ml), and two days later, the supernatant is removed and the virus added. After adsorption for 45 minutes, the inoculum is removed and the cells washed with phosphate-buffered saline (pH 7.2). The compounds at different concentration are then added in maintenance medium (containing 2% serum). […] The cells are fixed with a mixture of 5% glacial acetic acid/95% Ethanol for 15 minutes, and then stained with Giemsa (20% in PSB) for 4 hours. The plates are then washed and dried. The foci are then enumerated with a dissecting stereomicroscope.

Friend Leukemia virus = conditions: Ostertag et al.; Krieg et al.; cited from earlier work
[1] = test system: Mouse ecotropic (Cas-Br-M); experiment: Median effective antiviral concentration against mouse ecotropic virus (Table 5); assay type: cell-based, murine retrovirus; conditions: unidentified retrovirus
From the text: as §1

NIH Swiss mice = conditions: oral 0.5 mg/ml ad libitum, 67 days
HIV-1 p24 = experiment: Inhibition of HIV replication in human PBM cells, p24 RIA (Table 3)
HIV p24 and p41 = experiment: Inhibition of HIV replication in human PBM cells, western blot analysis (Table 3)
uninfected cells = conditions: CS-87 compared with AZT
HIV (LAV-1) = experiment: Median effective antiviral concentration against HIV (Table 5); assay type: cell-based; conditions: Human immunodeficiency virus 1
[2] = preliminary results, Yarchoan et al. 1986; cited from earlier work
[3] = Effect on weight of uninfected BALB/c mice (FIG. 3); assay type: in vivo, mouse; conditions: compared with each other and control
HIV RT = biological target: T1, HIV RT (Human immunodeficiency virus type 1 group M subtype B, UniProt P03367); experiment: Effect of 5'-triphosphates on HIV reverse transcriptase (Table 6); assay type: biochemical; conditions: 5'-triphosphate; read-out: HIV RT K1
T1 construct: HIV reverse transcriptase

Host cell α-DNA pol = biological target: T2, Host cell α-DNA pol (Homo sapiens, UniProt P09884); experiment: Effect of 5'-triphosphates on alpha DNA polymerase (Table 6); assay type: biochemical
T2 sequence (P09884 1-1462): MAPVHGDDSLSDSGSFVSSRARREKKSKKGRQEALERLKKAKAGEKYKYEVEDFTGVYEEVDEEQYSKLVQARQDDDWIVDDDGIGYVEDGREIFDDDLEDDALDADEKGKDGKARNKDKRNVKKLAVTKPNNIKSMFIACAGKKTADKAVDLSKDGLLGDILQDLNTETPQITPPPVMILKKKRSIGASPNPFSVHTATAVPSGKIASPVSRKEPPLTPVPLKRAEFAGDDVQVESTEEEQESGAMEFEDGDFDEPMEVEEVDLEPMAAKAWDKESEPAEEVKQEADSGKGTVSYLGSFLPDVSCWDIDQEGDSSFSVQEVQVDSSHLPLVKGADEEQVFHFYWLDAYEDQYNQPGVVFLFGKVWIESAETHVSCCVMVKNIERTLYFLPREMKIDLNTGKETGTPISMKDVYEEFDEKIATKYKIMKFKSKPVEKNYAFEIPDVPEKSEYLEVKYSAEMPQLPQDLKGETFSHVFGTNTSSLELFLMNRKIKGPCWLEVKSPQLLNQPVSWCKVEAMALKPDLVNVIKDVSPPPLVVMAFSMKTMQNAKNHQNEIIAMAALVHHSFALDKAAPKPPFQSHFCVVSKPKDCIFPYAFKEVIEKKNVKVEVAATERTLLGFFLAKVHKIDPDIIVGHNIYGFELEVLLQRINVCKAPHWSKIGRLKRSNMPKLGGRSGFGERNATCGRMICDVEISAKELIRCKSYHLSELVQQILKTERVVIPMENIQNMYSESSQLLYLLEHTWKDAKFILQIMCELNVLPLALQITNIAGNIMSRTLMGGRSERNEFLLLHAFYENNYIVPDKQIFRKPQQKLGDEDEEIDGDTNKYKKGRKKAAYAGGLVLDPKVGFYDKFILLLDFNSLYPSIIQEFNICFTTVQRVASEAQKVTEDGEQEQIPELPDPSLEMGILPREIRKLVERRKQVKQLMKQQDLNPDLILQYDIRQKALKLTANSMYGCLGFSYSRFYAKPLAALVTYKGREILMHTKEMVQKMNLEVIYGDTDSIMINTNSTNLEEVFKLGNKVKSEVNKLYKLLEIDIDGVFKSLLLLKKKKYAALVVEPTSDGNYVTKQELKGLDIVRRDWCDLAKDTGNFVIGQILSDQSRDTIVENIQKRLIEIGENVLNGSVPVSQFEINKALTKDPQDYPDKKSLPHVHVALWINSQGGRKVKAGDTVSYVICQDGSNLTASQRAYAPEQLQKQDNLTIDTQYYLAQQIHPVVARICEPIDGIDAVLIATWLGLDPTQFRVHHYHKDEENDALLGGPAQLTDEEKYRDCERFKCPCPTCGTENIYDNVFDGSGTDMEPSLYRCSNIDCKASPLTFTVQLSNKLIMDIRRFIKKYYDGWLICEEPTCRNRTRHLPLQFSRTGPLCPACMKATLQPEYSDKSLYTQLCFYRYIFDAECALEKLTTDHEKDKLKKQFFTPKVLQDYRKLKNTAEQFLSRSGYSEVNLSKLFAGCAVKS

L1210 cells = conditions: in vitro; Lin et al.; Lin and Mancini; cited from earlier work
[4] = test system: two particular enzymes isolated from L1210 cells; conditions: Lin et al.; cited from earlier work
sarcoma 180 cells = conditions: in vitro; Lin et al.; cited from earlier work
[5] = Human immunodeficiency virus 1, PBMC, in Homo sapiens, read-out: RT % Inhibition (corrected)
[6] = individual mouse, listed as AzT
[7] = individual mouse, listed as Azt
[8] = Human immunodeficiency virus 1, PBMC, in Homo sapiens, read-out: RIA p24 % Inhibition

## Cc1cn([C@H]2C[C@H](N=[N+]=[N-])[C@@H](CO)O2)c(=O)[nH]c1=O [AZT, 3'-azido-3'-deoxythymidine, reference compound]
HIV-1 and SIV
  effect of delayed treatment on replication of HIV-1 and SIV: time of administration is critical to the effectiveness of the treatment
HIV-1 (Strain HTLV-III)
  MIC: 0.32 µM (≈ 0.0855 µg/mL)
HIV-1
  pEC50: 8.70
Friend (EY-10)
  pEC50: 8.40
HIV
  activity against HIV, in words: somewhat more active than CS-87
HIV-1 (strain LAV); 0.01 μM
  RT: Mean DPM/ml on day 5 (3 day old cells): 65,208 DPM/ml
HIV-1 (strain LAV); 0.1 μM
  RT: Mean DPM/ml on day 5 (3 day old cells): 6,144 DPM/ml
HIV-1 (strain LAV); 1 μM
  RT: Mean DPM/ml on day 5 (3 day old cells): 2,304 DPM/ml
HIV-1 (strain LAV); [5]
  inhibition at 0.01 µM: 89.8%
  inhibition at 0.1 µM: 99.1%
  inhibition at 1 µM: 99.7%
SIV (SMM)
  pEC50: 8.70
HIV-1 (Strain RF-II)
  pEC50: 6.47
Friend Leukemia virus
  activity against Friend Leukemia virus: activity against Friend Leukemia virus
[1]
  pEC50: 8.15
NIH Swiss mice; Mean of group
  Hct: 28.7%
  Hgb: 9.2 g/dL
  MCH: 21.4 pg
  MCHC: 32.0 g/dL
  MCV: 66.8 fL
  PLT: 1.2 × 10^6
  RBC: 4.3 × 10^6
  RDW: 23.4%
  WBC: 6.6 × 10^3
NIH Swiss mice; [6]
  Hct: 28.4% and 35.0%
  Hgb: 9.1 g/dL and 11.0 g/dL
  MCH: 22.1 pg and 21.2 pg
  MCHC: 32.1 g/dL and 31.4 g/dL
  MCV: 68.9 fL and 67.4 fL
  PLT: 1.076 × 10^6 and 1.292 × 10^6
  RBC: 4.1 × 10^6 and 5.2 × 10^6
  RDW: 29.9% and 17.8%
  WBC: 4.5 × 10^3 and 8.8 × 10^3
NIH Swiss mice; [7]
  Hct: 21.1% and 30.1%
  Hgb: 6.9 g/dL and 9.6 g/dL
  MCH: 20.5 pg and 21.6 pg
  MCHC: 32.6 g/dL and 31.9 g/dL
  MCV: 62.9 fL and 67.8 fL
  PLT: 1.187 × 10^6 and 1.112 × 10^6
  RBC: 3.4 × 10^6 and 4.4 × 10^6
  RDW: 24.6% and 21.3%
  WBC: 5.2 × 10^3 and 7.9 × 10^3
HIV-1 p24; 0.01 μM
  RIA p24 (Dupont kit): 4.39 ng/mL
HIV-1 p24; 0.1 μM
  RIA p24 (Dupont kit): 0.51 ng/mL
HIV-1 p24; 1 μM
  RIA p24 (Dupont kit): 0.18 ng/mL
HIV-1 p24; [8]
  inhibition at 0.01 µM: 81.8%
  inhibition at 0.1 µM: 97.9%
  inhibition at 1 µM: 99.3%
HIV p24 and p41; 0.01 μM
  Western blot p24 (band intensity): 2+
  Western blot p41 (band intensity): 1+
HIV p24 and p41; 0.1 μM
  Western blot p24 (band intensity): 0
  Western blot p41 (band intensity): 0
HIV p24 and p41; 1 μM
  Western blot p24 (band intensity): 0
  Western blot p41 (band intensity): 0
Uninfected cells
  cytotoxicity / toxicity in words: much greater toxicity
HIV (LAV-1)
  pEC50: 8.70
[2]
  toxicity in a clinical setting: exhibits toxicity

## CCc1cn([C@H]2C[C@H](N=[N+]=[N-])[C@@H](CO)O2)c(=O)[nH]c1=O [CS-85, 3'-azido-2',3'-dideoxy-5-ethyl-uridine, reference compound]
[3]
  effect on weight of uninfected BALB/c mice: no significant difference

## [N-]=[N+]=N[C@H]1C[C@H](n2ccc(=O)[nH]c2=O)O[C@@H]1COP(=O)(O)OP(=O)(O)OP(=O)(O)O [CS-87-TP, 3'-azido-2',3'-dideoxyuridine triphosphate]
HIV RT
  pKi: 8.05
Host cell α-DNA pol; 5'-triphosphate, read-out: Host cell α-DNA pol K1
  pKi: 2.92
Host cell α-DNA pol; K1 host cell α-DNA pol / K1 HIV RT
  Ratio: Cellular/HIV: 133,333

## [N-]=[N+]=N[C@H]1C[C@H](n2ccc(N)nc2=O)O[C@@H]1CO [CS-91, 3' azido 2',3'-dideoxycytidine]
HIV-1 and SIV
  effect of delayed treatment on replication of HIV-1 and SIV: time of administration is critical to the effectiveness of the treatment
SIV (SMM)
  pEC50: 5.94
[1]
  pEC50: 4.11
HIV (LAV-1)
  pEC50: 6.41

## Nc1ccn([C@H]2CC[C@@H](CO)O2)c(=O)n1 [DDC, reference compound]
L1210 cells
  activity against L1210 cells: inactive
[4]
  inhibitory activity towards two particular enzymes isolated from L1210 cells: only marginal inhibitory activity
Sarcoma 180 cells
  activity against sarcoma 180 cells: inactive

## Nc1ccn([C@H]2CC[C@@H](CO)O2)c(=O)n1 [d2C (ddC), 2',3'-dideoxycytidine, reference compound]
HIV-1 (Strain HTLV-III)
  MIC: 0.47 µM (≈ 0.0993 µg/mL)
HIV-1
  pEC50: 7.96
HIV-1 (Strain RF-II)
  pEC50: 6.32
